Entries after “also recorded” stand apart in the source; their conditions may differ.
Columns and labels:
[1] = tested on: IMR32 (reduced PSMD5) and Kelly neuroblastoma cells; assay: Viability of IMR32 versus Kelly neuroblastoma cells (CellTiter-Glo); format: cell-based, human; details: other experiments, e.g., 0.1 uM
[2] = tested on: relapsed multiple myeloma; assay: Analysis of phase 2/3 bortezomib clinical trials in relapsed multiple myeloma stratified by 19S subunit expression; format: in vivo, human
Description: (All patients were treated with bortezomib.) (FIG. 15B) Reduced expression of 19S subunit expression is correlated with poor tumor suppression response to bortezomib in patients with relapsed myeloma enrolled in phase 2 and phase 3 clinical trials of bortezomib. Plotted is the time to relapse for patients that relapsed that were either treated with bortezomib, stratified by reduced expression of at least one subunit of the 19S proteasome complex or the dexamethasone treated group as a control.
We analyzed gene expression data from 135 patients with relapsed multiple myeloma who participated in Phase II or III trials of bortezomib (˜2007; Mulligan, G., Mitsiades, et al. (2007) Gene expression profiling and correlation with outcome in clinical trials of the proteasome inhibitor hortezomib. Blood 109, 3177-3188) and determined the sigma score for each cancer. […]
Methods details: re-treatment gene expression data from relapsed multiple myeloma patients undergoing clinical trials with bortezomib were downloaded from GSE9782 (34). […] Sigma scores were calculated from all probes. […] P-value was calculated using Wilcoxon test.

FDX1 [3] = molecular target: T1, FDX1 (Homo sapiens, UniProt P10109); assay: In vitro Fe-S cluster assembly with reduced FDX1 (absorbance at 456 nm); format: biochemical
T1 construct: made in house
T1 sequence (P10109 62-184): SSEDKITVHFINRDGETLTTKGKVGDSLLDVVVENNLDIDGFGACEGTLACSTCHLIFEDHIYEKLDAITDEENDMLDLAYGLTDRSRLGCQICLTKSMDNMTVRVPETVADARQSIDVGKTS
Excerpt: FIGS. 47A-47C: Inhibition of Fe—S formation by elesclomol and variants (in-vitro). […] Note: “x(number) concentration” means that the indicated compound was present at 5 times the concentration of the enzyme.
(FIG. 53A) provides a schematic describing mitochondrial Fe—S cluster biosynthesis. The mitochondrial ISC (iron-sulfur cluster) core complex contains the scaffold protein ISCU and cysteine desulfurase (ACP-ISD11-NFS1)2. The latter catalyzes the conversion of cysteine to alanine and generates S° for iron sulfur cluster assembly. S° is reduced by FDX1. A [2Fe-2S] cluster is subsequently formed on ISCU. […] In vitro Fe—S cluster assembly was carried out with reduced. FDX1 as the reducing agent in the presence or absence of either 5× (green) or 10× (yellow) elesclomol (both relative to FDX1). Fe—S cluster formation was monitored by following the increase of absorbance at 456 nm. […] The red triangle denotes an NMR peak that became severely broadened. […] The [2Fe-2S] cluster in FDX1 is indicated by spheres.
The in vitro Fe—S cluster assembly was carried out with reduced FDX1 as the reducing agent and detected by following the increase of absorbance at 456 tun following the addition of either of 5× (green) or 10× (yellow, both relative to FDX1) compound-1. […] Fe—S formation was monitored by following the increase of absorbance at 456 nm. […] Cysteine desulfurase activity assay carried out with the indicated concentrations of elesclomol.

FDX1 [4] = molecular target: T1, FDX1; assay: In vitro Fe-S cluster assembly assay with reduced FDX1; format: biochemical; details: reduced FDX1 as reductant; 5x and 10x stoichiometry relative to ISCU and FDX1
Excerpt: Whether elesclomol can inhibit the functional activity of FDX1 in mediating the Fe—S cluster formation was also examined. […] (FIG. 47A) A “x5 concentration” as shown in FIGS. 47A-47C means that elesclomol (or isoform) was present at 5 times the concentration of the enzyme. The assay used in FIGS. 47A-47C is described in the paper Cai et al., Biochemistry, 2017, 56 (3), pp 487-499.
Fe—S clusters are generated from sulfur extracted from cysteine by the iron sulfur-cluster (ISC) core complex (NFS1-ISD11-Acp-ISCU)2 and iron. A reductant (FDX1 or FDX2) is required for Fc-S cluster biosynthesis (Lill and Muhlenhoff, 2006; Py and Barras, 2010) (FIG. 53A). […]
Protein Expression and Purification—Unlabeled samples of ISCU, unlabeled (NFS1-ISD11-Acp)2 (abbreviated as SDA), unlabeled and [U-^15N]-FDX1 (truncated first 61 amino acids) and unlabeled FDX2 were produced and purified as described previously (Cai et al., 2013; Cai et al., 2017a; Cai et al., 20176). […] The reduction of FDX1 or FDX2 was monitored by the color change from dark brown to light pink and by recording IN/vis spectra before and after reduction. […]
In vitro Fe—S cluster assembly assay—The in vitro Fe—S cluster assembly assays were carried out as follows. […] The growth of absorbance at 456 nm was used to monitor the assembly of [2Fe-2S] clusters.

CC1(C)CCC(c2ccc(Cl)cc2)=C(CN2CCN(c3ccc(C(=O)NS(=O)(=O)c4ccc(N[C@H](CCN5CCOCC5)CSc5ccccc5)c(S(=O)(=O)C(F)(F)F)c4)cc3)CC2)C1 [ABT-263, navitoclax]
toxicity at lower concentrations than 1 uM [1]: a similar level of toxicity was observed

CC(C)C[C@H](NC(=O)[C@H](Cc1ccccc1)NC(=O)c1cnccn1)B(O)O [bortezomib]
time to progression of patients with reduced 19S subunit expression vs patients without ([2]; 34 patients, p-value=0.0086): shortened time to progression
effectiveness in patients with reduced expression of 19S proteasome subunit(s) ([2]; vs dexamethasone control): no significant effectiveness over the dexamethasone control

CN(NC(=O)CC(=O)NN(C)C(=S)c1ccccc1)C(=S)c1ccccc1 [elesclomol]
in vitro Fe-S cluster assembly with reduced FDX1 (FDX1 [3]; 5x or 10x relative to FDX1): inhibits in vitro Fe—S cluster assembly
in vitro formation of Fe-S clusters mediated by FDX1 (FDX1 [3]; x5 concentration relative to enzyme): sufficient to induce an inhibitory effect
inhibition of in vitro Fe-S cluster assembly (FDX1 [4]): sufficient to induce an inhibitory effect; also recorded: progressively inhibited

Reference: patent publication US20180353445A1, “METHODS AND COMPOSITIONS RELATING TO PROTEASOME INHIBITOR RESISTANCE” (Whitehead Institute for Biomedical Research, priority 2017, published 2018)
